Source: ChEMBL document CHEMBL4706661, “Synthesis and vasorelaxant evaluation of novel 7-methoxyl-2,3-disubstituted-quinoxaline derivatives” (2021)
Active and inactive are the calls of the source. No cut-off for these calls is given here.

Tests used:
[1] = test system: Thoracic aorta; experiment: Vasorelaxant activity in C57 mouse thoracic aortic rings containing endothelium assessed as reduction in phenylephrine-induced contractions at 3 to 300 uM measured for 16 mins by myograph assay; format: functional, tissue-based; conditions: dose 3-300 µM
[2] = test system: Thoracic aorta; experiment: Vasorelaxant activity in C57 mouse thoracic aortic rings containing endothelium assessed as reduction in phenylephrine-induced contractions at 300 uM after 40 mins by myograph method; format: functional
[3] = test system: Thoracic aorta; experiment: Vasorelaxant activity in C57 mouse thoracic aortic rings containing endothelium assessed as reduction in high extracellular K+-induced contractions measured for 16 mins by myograph assay; format: functional, tissue-based; conditions: dose 3-300 µM
[4] = test system: Thoracic aorta; experiment: Vasorelaxant activity in C57 mouse thoracic aortic rings containing endothelium assessed as reduction in high extracellular K+-induced contractions at 3 to 300 uM pretreated with nitric oxide synthase inhibitor, L-NAME and measured for 16 mins by myograph method; format: functional, tissue-based; conditions: dose 3-300 µM
[5] = test system: Thoracic aorta; experiment: Vasorelaxant activity in C57 mouse thoracic aortic rings containing endothelium assessed as reduction in phenylephrine-induced contractions at 3 to 300 uM pretreated with nitric oxide synthase inhibitor, L-NAME and measured for 16 mins by myograph method; format: functional, tissue-based; conditions: dose 3-300 µM
[6] = test system: Thoracic aorta; experiment: Vasorelaxant activity in C57 mouse thoracic aortic rings assessed as reduction in phenylephrine-induced contractions at 3 to 300 uM measured for 16 mins in absence of endothelium by myograph method; format: functional, tissue-based; conditions: dose 3-300 µM
[7] = test system: Thoracic aorta; experiment: Vasorelaxant activity in C57 mouse thoracic aortic rings assessed as reduction in high extracellular K+-induced contractions at 3 to 300 uM measured for 16 mins in absence of endothelium by myograph assay; format: functional, tissue-based; conditions: dose 3-300 µM

SMILES	Activity [1]	inhibition at 300 µM [2]	Activity [3]	Activity [4]	Activity [5]	Activity [6]	Activity [7]
COc1ccc2nc(Oc3ccc(-c4ccccc4)cc3)c(N3CCCC3)nc2c1	inactive						
COC(=O)C1CCN(c2nc3cc(OC)ccc3nc2N2CCCC2)CC1	Dose-dependent effect	72.7%	Dose-dependent effect	Active	Active	Active	Active
COc1ccc2nc(N3CCCC3)c(N3CCOCC3)nc2c1	inactive						
COc1ccc2nc(N3CCCC3)c(N3CCN(c4ccccc4)CC3)nc2c1	inactive						
COc1ccc2nc(N3CCCC3)c(N3CCN(Cc4ccccc4)CC3)nc2c1	inactive						
COc1ccc2nc(N3CCCC3)c(N3CCN(C)CC3)nc2c1	Dose-dependent effect	50%	Dose-dependent effect	Active	Active	Active	Active
CCN1CCN(c2nc3cc(OC)ccc3nc2N2CCCC2)CC1	Dose-dependent effect	50%	Dose-dependent effect	Active	Active	Active	Active
COc1ccc2nc(Oc3ccc(-c4ccc(C#N)cc4)cc3)c(N3CCN(c4ccccc4)CC3)nc2c1	Active		Dose-dependent effect				Active
COc1ccc2nc(Oc3ccc(-c4ccc(C#N)cc4)cc3)c(N3CCN(C)CC3)nc2c1	Active		Dose-dependent effect				Active
COc1ccc2nc(NC#N)c(N3CCN(Cc4ccccc4)CC3)nc2c1	inactive						
